The values that follow come from US8211922B2, “1-methylnicotinamide derivatives and formulations for treatment of lipoprotein abnormalities” (Cortria Corporation, priority 2005, dated 2012).

The subject of series [1] is patients on permanent therapy with simvastatin or atorvastatin. As to the kind of experiment: Long term MNA use in patients on permanent therapy with statins, lipoprotein levels. Format: in vivo, human. On the procedure: A group of 8 patients (5 females and 3 males, ages 59-85) on permanent therapy with simvastatin or atorvastatin (10-20 mg/day) were selected for the study. MNA in a daily dose of 90-180 mg was co-administrated for a period of 3 to 42 months. The liporotein levels for each patient were monitored in every 1 to 3 months. […] The changes varied from patient to patient within a limit −5% to −42%. The appropriate changes in LDL were within −12% to +17% and in HDL within −6% to +37%.

Series [2] has as its system apoE/LDLR−/− mice. In words: Mice model of atheroprotection, quantitation of atherosclerosis. As to conditions: female apoE/LDLR−/− mice, 100 mg/kg MNA for 2 months, vs placebo; FIG. 2. Format: in vivo. The method, then: Female apoE/LDLR^−/− mice on C57BL/6J background were used for experiments. The experiments were conducted according to the Guidelines for Animal Care and Treatment of the European Communities and were approved by the Local Animal Ethics Committee. apoE/LDLR^−/− mice were fed with standard chow. MNA was given for 2 months (100 mg/kg, 4-6 months old apoE/LDLR^−/− mice) and effects of MNA compared to placebo-treated mice. In each group of mice (control and MNA) n=5.
Development of atherosclerosis was determined by cross-section (aortic roots), en-face (whole aorta) analysis and quantified semiautomatically, as described before (Jawien et al. Eur J Clin Invest; 2006; 36:141-6). Briefly, the heart and whole aorta were washed by phosphate buffered saline, then the heart and the whole aorta were removed. The heart and ascending aorta were embedded in OCT compound and snap-frozen. Ten micrometer-thick cryosections were cut and after fixation in 4% paraformaldehyde were stained with Meyer's hematoxylin and oil red-O and lesion area was measured semiautomatically in each slide using LSM Image Browser software.

Series [3] concerns dyslipidemic patients. As to the kind of experiment: Anti-atherogenic effect of MNA after a single administration, plasma lipids. Format: in vivo, human. To be noted: for HDL % / TG % / TG/HDL % / Total Cholesterol %: change vs time 0; for TG: person. On the procedure: The anti-atherogenic effect of NINA after single administration was also investigated in dyslipidemic patients. The patient was treated with 100 mg MNA. The plasma levels of TC, TG, and HDL were measured at baseline and after 1 and 3 hours. The level of LDL was not measured due to high TG level. […] The increase of the HDL (24.8 vs. 29.0 mg/dl) was observed after the administration. The significant reduction of TG/HDL ratio (24.0 vs. 16.5) was observed.

On to 1-methylnicotinamide chloride [MNA], for which, in series [1] (co-administration with statin, patients with a low starting HDL level (<40 mg/dl)), the HDL entry is “particularly remarkable increase”. Moreover, the “Triglyceride (TG) level” value in series [1] (long term co-administration of MNA with simvastatin or atorvastatin, in general) was “reduction”. For the same substance, the Negative side effects entry in series [1] (long term co-administration of MNA with statins) was “Neither patients nor doctors involved with this study have declared any negative side effects”. Besides, the “Atherosclerosis progression (lesion area)” value in series [2] is given as “slows atherosclerosis progression”. The TG/HDL ratio in series [3] (after the administration of 100 mg MNA (base-line 24.0)) turned out to be 16.5. This substance gave an HDL in series [3] (after the administration of 100 mg MNA (base-line 24.8)) of 29.0 mg/dL. The substance further showed a TG level in series [3] (after the administration of 100 mg MNA (base-line 596)) of 479 mg/dL. Further, in series [3] (single 100 mg MNA, 1 h), the HDL % came to 2.82%, the TG % is on record as −5.03%, the TG/HDL % was −7.64% and the “Total Cholesterol %” value was 1.08%. For the same substance, in series [3] (single 100 mg MNA, 1 h), the TG is 566 mg/dL, the HDL amounted to 25.5 mg/dL, the TG/HDL came to 22.20 and the “Total Cholesterol” value stood at 188 mg/dL. In series [3] (single 100 mg MNA, 3 h), the HDL % is given as 16.94%, the TG % was -19.63%, the TG/HDL % is −31.27% and the “Total Cholesterol %” value was determined as 4.84%. For the same substance, in series [3] (single 100 mg MNA, 3 h), the TG was determined as 479 mg/dL, the HDL stood at 29.0 mg/dL, the TG/HDL worked out at 16.52 and the “Total Cholesterol” value was found to be 195 mg/dL.
